Experimental data taken from US5792635A, “Method of inhibiting the sodium/proton exchanger NHE3 and method of inhibiting growth by administering squalamine” (priority 1995, dated 1998).
“Also recorded” adds a separate entry of the source.

Legend:
[1] = system: rabbit NHE1; assay: Inhibition of NHE1 in PS120 fibroblasts transfected with rabbit NHE1, internal pH by BCECF-AM; format: cell-based; details: 5 μg/ml; acid-preloaded; FIG. 2A
Experimental: (§1) PS120 fibroblasts transfected with rabbit or human NHE1 were grown as described above.

[2] = system: human coronary artery smooth muscle; assay: Proliferation of human coronary artery smooth muscle in vitro; format: cell-based; details: FIG. 15
From the text: Aminosterols of the invention may also have utility in inhibiting the growth factor mediated proliferation of smooth muscle within the artery. Following coronary angioplasty, reocclusion commonly occurs, secondary to reparative proliferation of the vascular smooth muscle within the wall of the surgically manipulated blood vessel. This process generally takes place over the course of 7-10 days. To evaluate whether an agent could prevent the growth factor mediated proliferation of smooth muscle within the artery, compound 1436 was evaluated in vitro for its effect on the proliferation of human coronary artery smooth muscle. Results for compound 1436 are shown in FIG. 13, and those for squalamine are shown in FIG. 14, with FIG. 15 being a composite logarithmic plot.

[3] = system: vitelline capillaries of 3- to 5-day chick embryo; assay: Chick embryo vitelline capillary regression assay; format: in vivo
Experimental: Using the chick embryo vitelline capillaries assay, compounds were tested for their ability to induce capillary regression. Each compound was applied in 0.1 ml of 15% Ficol 400 and PBS onto the embryo, and vascular regression was assessed after 60 minutes.
The 3-day chick embryo consists of an embryonic disc from which numerous vessels emerge and return, forming a "figure 8"-shaped structure--the embryo in the center with vascular loops extending outward over both poles. […] Following a lag period of around 15 minutes, the constriction of continuity between capillary and secondary vessels, generally on the "venous" side, was observed. Continued pulsatile blood flow progressed, resulting in a "swelling" of the blind tube, followed by a pinching off of the remaining connection and formation of an enclosed vascular sac resembling a "blood island." This process progressed until only the largest vessels remained intact.

[4] = system: Xenopus tadpoles; assay: Tadpole assay; details: 10 μg/ml
[5] = system: chick chorioallantoic membrane; assay: Chorioallantoic membrane (CAM) model, inhibition of capillary growth; format: in vivo
From the text: The growing capillaries within the chorioallantoic membrane model (CAM model) have been used as a system in which to evaluate the effect of agents on their potential to inhibit new vessel growth. Neovascularization occurs most aggressively over the first week of embryonic development. Thereafter capillary growth is characterized by principally "elongation" rather than "de novo" formation.
In the standard assay, agents are applied locally to a region of the embryo over which neovascularization will occur. Agents are assessed by their ability to inhibit this process, as evaluated by visual examination about 7 days after application. […] The assay utilized is described in detail in Auerbach et al., Pharm. Ther. 51, 1991, 1-11.

[6] = system: human NHE1; assay: Inhibition of NHE1 in PS120 fibroblasts transfected with human NHE1, internal pH by BCECF-AM; format: cell-based; details: 5 μg/ml; acid-preloaded; FIG. 2B
Experimental: as §1

[7] = system: human T-cells; assay: Inhibition of PHA-stimulated human lymphocytes; format: cell-based; details: 10 μg/ml
From the text: Results are tabulated below.

[8] = system: bacteria, fungi and protozoa; details: in words; cited from earlier work
[9] = system: B16 melanoma; assay: Synergistic inhibition of tumor growth, B16 melanoma in mice; format: in vivo, mouse; details: squalamine 15 mg/kg/day; compound 1436 tolerable schedule
Experimental: Based on the idea that tumor growth involves both the clonal expansion of a malignant cell along with the development of a supporting vascular supply, a combination of compound 1436 with squalamine was tested to determine whether it would achieve a synergistic effect on solid tumor growth. This concept was evaluated in the B16 melanoma model.
Animals were implanted with B16 melanoma followed by treatment with compound 1436 or 1256 administered in a combined schedule or separately. […] Thus, a combination of these two compounds achieves a therapeutic benefit in tumors dependent on neovascularization that may prevent metastatic spread.

[10] = system: human umbilical venous endothelial cells; assay: LPS-/TNF-α-induced neutrophil adherence; format: cell-based; details: 10 μg, 1.0 μg, or 0.1 μg; three different subjects
From the text: Methods 109, 1988, 175-184.

[11] = system: B16; assay: Cytostatic activity against B16 in culture; format: cell-based, murine; details: except at very high concentrations
[12] = system: B16 melanoma; assay: Suppression of growth of B16 melanoma in C57B mice; format: in vivo, mouse
Experimental: The growth of B16 melanoma in C57B mice is dependent upon neovascularization.
Using the growth of B16 melanoma cells in C57B mice, a recognized model for the evaluation of inhibitors of angiogenesis on the growth of cancers, the effects of subcutaneous, intraperitoneal and oral administration of squalamine were evaluated.

[13] = target: rabbit NHE3 (Oryctolagus cuniculus, UniProt P26432); details: 5 μg/ml
Experimental: Internal pH was measured either following acid loading or in the absence of an acid-loading challenge, with the results shown in FIGS. 1A and 1B.
Specifically, PS120 fibroblasts transfected with rabbit NHE3 were grown in supplemented Dulbecco's-modified Eagle's medium as described by Levine et al., J. Biol. Chem. 268, 1993, 25527-25535. […] For cells not acid-preloaded, the actual internal pH value was monitored as a function of time following addition of squalamine, with the results depicted in FIG. 1B.
PS120 fibroblasts transfected with rabbit NHE3 were grown and acid preloaded by exposure to 40 mM NH4 Cl as described above in conjunction with FIGS. 1A and 1B. Internal cellular pH changes expressed as the rate of pH recovery as a function of restored extracellular sodium ion concentration following exposure to 10 μg/ml of the compound were assayed with the fluorescent dye BCECF-AM as described above.

[14] = system: melanoma 1205Lu; assay: Suppression of growth of human melanoma 1205Lu in RAG-1 mice; format: in vivo, mouse (human tumor)
From the text: As apparent from FIG. 5, melanoma 1205Lu develops aggressively in RAG-1 mice after implantation.

Chain of rabbit NHE3 (P26432 30-832): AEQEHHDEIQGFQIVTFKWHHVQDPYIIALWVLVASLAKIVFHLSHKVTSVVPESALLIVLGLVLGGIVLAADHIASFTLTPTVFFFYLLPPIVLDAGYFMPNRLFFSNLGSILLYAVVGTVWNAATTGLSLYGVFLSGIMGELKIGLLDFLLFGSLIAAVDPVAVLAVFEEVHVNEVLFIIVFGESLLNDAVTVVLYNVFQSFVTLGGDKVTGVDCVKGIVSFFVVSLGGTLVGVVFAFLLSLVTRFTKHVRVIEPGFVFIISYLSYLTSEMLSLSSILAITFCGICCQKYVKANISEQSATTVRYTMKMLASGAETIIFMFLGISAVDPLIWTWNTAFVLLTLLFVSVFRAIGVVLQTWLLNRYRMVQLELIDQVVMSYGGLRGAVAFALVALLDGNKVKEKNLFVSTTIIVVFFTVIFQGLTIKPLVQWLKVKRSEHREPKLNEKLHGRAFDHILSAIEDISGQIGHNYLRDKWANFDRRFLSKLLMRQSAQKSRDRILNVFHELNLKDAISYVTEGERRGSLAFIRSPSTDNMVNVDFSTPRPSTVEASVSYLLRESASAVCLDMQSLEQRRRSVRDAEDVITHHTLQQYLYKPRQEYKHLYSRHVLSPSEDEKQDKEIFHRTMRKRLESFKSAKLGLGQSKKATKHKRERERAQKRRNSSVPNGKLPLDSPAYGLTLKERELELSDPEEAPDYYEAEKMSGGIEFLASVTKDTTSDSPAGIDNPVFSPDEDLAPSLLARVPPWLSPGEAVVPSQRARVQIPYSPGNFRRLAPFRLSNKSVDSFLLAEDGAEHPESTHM

CC(C)[C@@H](CC[C@@H](C)[C@H]1CC[C@H]2[C@@H]3[C@H](O)C[C@H]4C[C@@H](NCCCNCCCCN)CC[C@]4(C)[C@H]3CC[C@]12C)OS(=O)(=O)O [Squalamine]
inhibitory activity against rabbit NHE1 [1]: no inhibitory activity | suppression of growth of human coronary artery smooth muscle [2]: suppress in vitro the growth of human coronary artery smooth muscle | effect on vitelline capillaries ([3]; 3- to 5-day chick embryos): disrupt vitelline capillaries | lag period before constriction between capillary and secondary vessels ([3]; 3-day chick embryo): around 15 minutes | activity in vitelline capillary regression assay ([3]; Table 5): especially active | embryonic heart beat ([3]; chick embryo): continued to beat vigorously | hemorrhage ([3]; chick embryo): No hemorrhage was seen | hemolysis ([3]; chick embryo, microscopic): absence of hemolysis | death / lethality time [4]: ≤ 2 h | observed response in tadpole ([4]; stage 59-60 Xenopus): blood flow through the capillaries of the tail shut down; also recorded: unaltered blood flow through the fine capillaries of the hands and feet; also recorded: common vascular occlusive effect; also recorded: Vascular occlusion in fine capillaries of tail. No effect on vascular flow through hands or feet | positive (fraction printed under Percentage positive) ([5]; 13-day embryo, 5.0 μg applied): 0/26 | anti-angiogenic activity in CAM ([5]; in words): potent but specific inhibitory activity, equal in potency to the most active compounds described to date in the literature | inhibitory effect on 13-day chick ([5]; ten times 0.65 μg, 13-day old chick): no inhibitory effect | inhibitory activity against human NHE1 [6]: no inhibitory activity | inhibition of blast transformation, in words [7]: Some effect | antibiotic activity [8]: broad-spectrum antibiotic, killing bacteria, fungi and protozoa | effect of single agent versus combination [9]: Neither administration of squalamine at 15 mg/kg/day nor compound 1436 alone in a tolerable schedule could achieve this effect | inhibition of neutrophil adherence [10]: no inhibition | cytostatic activity against B16 in culture [11]: minimal cytostatic activity | body weight and hematologic parameters ([12]; B16-bearing C57B mice): no significant depression | suppression of B16 tumor volume ([12]; intraperitoneal, FIG. 4B): dose-dependent suppression of tumor volume | suppression of B16 tumor volume ([12]; oral, FIG. 4C): dose-dependent suppression of tumor volume | suppression of B16 tumor volume ([12]; subcutaneous, FIG. 4A): dose-dependent suppression of tumor volume | inhibition of NHE3 (Km and Vmax) ([13]; FIG. 1A, 1B): inhibited NHE3 with respect to proton concentration at both Km and Vmax levels | resting internal pH ([13]; not acid-preloaded, FIG. 1B): the resting pH of these cells was also inhibited | suppression of melanoma 1205Lu growth ([14]; 10, 20, 40 mg/kg/d, FIG. 5): suppress the growth of melanoma 1205Lu in RAG-1 mice in a dose-dependent fashion | reversibility after cessation of treatment ([14]; RAG-1 mice): reversible
